Test results published in article PMC8619914, “Development of Novel Peptides for the Antimicrobial Combination Therapy against Carbapenem-Resistant Acinetobacter baumannii Infection” (Pharmaceutics, 2021).
Converted amounts (≈) assume the structure as drawn. Like-named read-outs stand apart in the source and are kept apart here. Where no end group is shown, it is not given here.

Assays:
CRAB C3 [1] = assay: microbe, parasite or virus in culture; details: 16 h; for Minimum Inhibitory Concentration, CRAB C3: MH media, 2 × 10^5 CFU·mL^−1, 37 °C, absorbance 600 nm; for MIC: Acinetobacter baumannii, read-out: Minimum Inhibitory Concentration, CRAB C3
From the text: (§1) The Gram-negative bacterial strain Escherichia coli (KCTC 1682) and Gram-positive bacterial strain Staphylococcus aureus (KCTC 1621) were purchased from the Korean Collection for Type Cultures (Jeongeup, Korea). Acinetobacter baumannii (KCCM 40203) were purchased from Korea Culture Center of Microorganisms (Seoul, Korea). Additionally, five carbapenem-resistant Acinetobacter baumanii C1–C5 (CRAB C1–C5), which have the OXA-23 gene with carbapenem-resistance were collected from the patients with CRAB bacteremia, who presented symptoms and signs of infection at Korea University Anam Hospital (Seoul, Korea) (IRB registration no. 2020AN0157). The minimum inhibitory concentrations (MIC) of the AMP and antibiotics against the various bacterial strains were assessed using the serial dilution method on Muller–Hinton (MH) media, as described previously. […] Absorbance at 600 nm was measured using a SpectraMAX microplate reader (Molecular Devices, San Jose, CA, USA).
(§2) Measurement of the minimum inhibitory concentrations (MIC) was conducted to determine the effect of the hydrophobicity of each antimicrobial peptide on its antimicrobial activity. MIC was defined as the minimum concentration that killed more than 99% of bacteria; it was measured against two standard Gram-negative bacteria (E. coli and A. baumanii), five clinically isolated CRAB (C1–C5), and one Gram-positive bacteria (S. aureus).

CRAB C5 [2] = assay: microbe, parasite or virus in culture; details: 16 h; for Minimum Inhibitory Concentration, CRAB C5: MH media, 2 × 10^5 CFU·mL^−1, 37 °C, absorbance 600 nm; for MIC: Acinetobacter baumannii, read-out: Minimum Inhibitory Concentration, CRAB C5
From the text: as §1, §2

CRAB C1 [3] = assay: microbe, parasite or virus in culture; details: 16 h; for Minimum Inhibitory Concentration, CRAB C1: MH media, 2 × 10^5 CFU·mL^−1, 37 °C, absorbance 600 nm; for MIC: Acinetobacter baumannii
From the text: as §1, §2

[4] = test system: Acinetobacter baumannii (KCCM 40203); assay: microbe, parasite or virus in culture; details: for Minimum Inhibitory Concentration, A. baumanii: KCCM 40203, 16 h; for MIC: Acinetobacter baumannii, KCCM40203, 16 h, read-out: Minimum Inhibitory Concentration, A. baumanii
From the text: as §1, §2

[5] = test system: Escherichia coli (KCTC 1682); assay: microbe, parasite or virus in culture; details: for Minimum Inhibitory Concentration, E. coli: MH media, 2 × 10^5 CFU·mL^−1, 37 °C, 16 h, absorbance 600 nm, MIC kills more than 99% of bacteria; for MIC: Escherichia coli, KCTC1682, 16 h, read-out: Minimum Inhibitory Concentration, E. coli
From the text: as §1, §2

CRAB C2 [6] = assay: microbe, parasite or virus in culture; details: 16 h; for Minimum Inhibitory Concentration, CRAB C2: MH media, 2 × 10^5 CFU·mL^−1, 37 °C, absorbance 600 nm; for MIC: Acinetobacter baumannii, read-out: Minimum Inhibitory Concentration, CRAB C2
From the text: as §1, §2

[7] = test system: Staphylococcus aureus (KCTC 1621); assay: microbe, parasite or virus in culture; details: for Minimum Inhibitory Concentration, S.aureus: KCTC 1621, 16 h; for MIC: Staphylococcus aureus, KCTC1621, 16 h, read-out: Minimum Inhibitory Concentration, S.aureus
From the text: as §1, §2

CRAB C4 [8] = assay: microbe, parasite or virus in culture; details: 16 h; for Minimum Inhibitory Concentration, CRAB C4: MH media, 2 × 10^5 CFU·mL^−1, 37 °C, absorbance 600 nm; for MIC: Acinetobacter baumannii, read-out: Minimum Inhibitory Concentration, CRAB C4
From the text: as §1, §2

[9] = test system: Gram-negative bacterial strains; assay: organism not typed; details: for GM (mean MIC of Gram-negative bacterial strains): seven Gram-negative strains, 256 assumed for MIC > 128 and 1024 for MIC > 512 μg·mL^−1; for MIC: read-out: GM (mean MIC of Gram-negative bacterial strains)
From the text: as §1
Geometric means (GM) were calculated to compare the relative antimicrobial activities of the analogs against Gram-negative bacteria. […] Next, the antibacterial mechanisms of peptides were investigated.

CRAB C3 [10] = assay: microbe, parasite or virus in culture; details: Acinetobacter baumannii, 16 h, read-out: MIC alone, CRAB C3
Method: (§3) The synergistic effects of AMPs and antibiotics were measured using checkerboard assays. Serial dilutions of PapMA-3 and antibiotics were performed from 1 to […] of the MIC. Samples were then cross-mixed and cultured in MH medium with 2 × 10^5 CFU·ml^−^1 bacteria. Results were recorded after 16 h of incubation at 37 °C. The fractional inhibitory concentration index (FICI) was calculated according to the European Committee on Antimicrobial Susceptibility (EUCAST).
(§4) The ability of PapMA-3 to facilitate these antibiotics in penetrating the bacterial membranes of Gram-negative bacteria was investigated.

CRAB C5 [11] = assay: microbe, parasite or virus in culture; details: Acinetobacter baumannii, 16 h, read-out: MIC alone, CRAB C5
Method: as §3, §4

CRAB C1 [12] = assay: microbe, parasite or virus in culture; details: Acinetobacter baumannii, 16 h, read-out: MIC alone, CRAB C1
Method: as §3, §4

CRAB C2 [13] = assay: microbe, parasite or virus in culture; details: Acinetobacter baumannii, 16 h, read-out: MIC alone, CRAB C2
Method: as §3, §4

CRAB C4 [14] = assay: microbe, parasite or virus in culture; details: Acinetobacter baumannii, 16 h, read-out: MIC alone, CRAB C4
Method: as §3, §4

CRAB C1 biofilm = assay: Biofilm inhibition, crystal violet; type: cell-based, carbapenem-resistant Acinetobacter baumannii; details: Acinetobacter baumannii, read-out: percentage of biofilm inhibition
Method: CRAB C1 cells (2 × 10^5 CFU·mL^−^1) were incubated with PapMA-3 and antibiotics in a tissue-culture well plate in MH medium containing 0.2% glucose for 16 h at 37 °C. The cells were stained with 0.1% (w/v) crystal violet in 0.25% (v/v) acetic acid for 1 h at room temperature; the dye complex was dissolved with ethanol. Absorbance at 595 nm was measured using SpectraMAX microplate reader (Molecular Devices) to quantify the biofilm formation.
Biofilms were quantified by staining with crystal violet. (A) Absorbance of crystal violet-stained biofilms with treatment of PapMA-3 and antibiotics at a concentration range of 32 to 512 μg·mL^−1, assessed at 595 nm. […] CRAB C1 without peptides or antibiotics served as the control (red). Statistical analysis was performed using two-way ANOVA with Dunnett’s comparison test. The values are expressed as the mean ± SEM of three independent experiments and are statistically significant at ** p < 0.01 and *** p < 0.001. ns, not significant.

[15] = read-out: Minimum Inhibitory Concentration, CRAB C1
[16] = 32 μg·mL^−1, CRAB C1, compared to the control

Compound	Minimum Inhibitory Concentration, CRAB C3 (CRAB C3 [1]) [µg/mL]	Minimum Inhibitory Concentration, CRAB C5 (CRAB C5 [2]) [µg/mL]	Minimum Inhibitory Concentration, CRAB C1 (CRAB C1 [3]) [µg/mL]	Minimum Inhibitory Concentration, A. baumanii [4] [µg/mL]	Minimum Inhibitory Concentration, E. coli [5] [µg/mL]	Minimum Inhibitory Concentration, CRAB C2 (CRAB C2 [6]) [µg/mL]	Minimum Inhibitory Concentration, S.aureus [7] [µg/mL]	Minimum Inhibitory Concentration, CRAB C4 (CRAB C4 [8]) [µg/mL]	GM (mean MIC of Gram-negative bacterial strains) [9] [µg/mL]	MIC (CRAB C3 [1]) [µg/mL]	MIC (CRAB C5 [2]) [µg/mL]	MIC (CRAB C1 [3]; [15]) [µg/mL]	MIC [4] [µg/mL]	MIC [5] [µg/mL]	MIC (CRAB C2 [6]) [µg/mL]	MIC [7] [µg/mL]	MIC (CRAB C4 [8]) [µg/mL]	MIC (CRAB C3 [10]) [µg/mL]	MIC (CRAB C5 [11]) [µg/mL]	MIC (CRAB C1 [12]) [µg/mL]	further results
RWKIFKKIPKFLHSAKKA-NH2 [PapMA-2]	64	128	128	128	64	>128	>128	>128	146	–	–	–	–	–	–	–	–	–	–	–	–
C[C@@H](O)[C@H]1C(=O)N2C(C(=O)O)=C(SCCN=CN)C[C@H]12 [Imipenem]	–	–	–	–	–	–	–	–	–	64 (≈ 214 µM)	64 (≈ 214 µM)	64 (≈ 214 µM)	0.25 (≈ 0.835 µM)	0.25 (≈ 0.835 µM)	64 (≈ 214 µM)	1 (≈ 3.34 µM)	64 (≈ 214 µM)	64	64	64	MIC (CRAB C1 [3]; read-out: Minimum Inhibitory Concentration, CRAB C1, MH Media): 64 µg/mL (≈ 214 µM); MIC (CRAB C2 [13]): 64 µg/mL; MIC (CRAB C4 [14]): 64 µg/mL; inhibition at 32 µg/mL (CRAB C1 biofilm; [16]): 88.9%; MIC [9]: 46 µg/mL
RWKIFKKIPKFLHSFKKF-NH2 [PapMA-4]	8	8	8	8	16	8	32	16	10	–	–	–	–	–	–	–	–	–	–	–	–
RWKIFKKIPKFLHSWKKF-NH2 [PapMA-5]	16	16	16	16	16	16	32	32	18	–	–	–	–	–	–	–	–	–	–	–	–
CC(=O)NC[C@H]1CN(c2ccc(N3CCOCC3)c(F)c2)C(=O)O1 [Linezolid]	–	–	–	–	–	–	–	–	–	256 (≈ 759 µM)	512 (≈ 1520 µM)	256 (≈ 759 µM)	256 (≈ 759 µM)	256 (≈ 759 µM)	256 (≈ 759 µM)	1 (≈ 2.96 µM)	512 (≈ 1520 µM)	256	512	256	MIC (CRAB C2 [13]): 256 µg/mL; MIC (CRAB C4 [14]): 512 µg/mL; inhibition at 32 µg/mL (CRAB C1 biofilm; [16]): 4.4%; MIC [9]: 329 µg/mL
RWKIFKKIPKFLHSWKKW-NH2 [PapMA-6]	8	16	8	8	16	8	32	16	11	–	–	–	–	–	–	–	–	–	–	–	–
RWKIFKKIPKFLHSAKKF-NH2 [PapMA]	16	32	32	32	32	32	64	64	34	–	–	–	–	–	–	–	–	–	–	–	–
CN[C@H](CC(C)C)C(=O)N[C@H]1C(=O)N[C@@H](CC(N)=O)C(=O)N[C@H]2C(=O)N[C@H]3C(=O)N[C@H](C(=O)N[C@H](C(=O)O)c4cc(O)cc(O)c4-c4cc3ccc4O)[C@H](O)c3ccc(c(Cl)c3)Oc3cc2cc(c3O[C@@H]2O[C@H](CO)[C@@H](O)[C@H](O)[C@H]2O[C@H]2C[C@](C)(N)[C@H](O)[C@H](C)O2)Oc2ccc(cc2Cl)[C@H]1O [Vancomycin]	–	–	–	–	–	–	–	–	–	256 (≈ 177 µM)	256 (≈ 177 µM)	256 (≈ 177 µM)	256 (≈ 177 µM)	128 (≈ 88.3 µM)	256 (≈ 177 µM)	0.5 (≈ 0.345 µM)	512 (≈ 353 µM)	256	256	256	MIC (CRAB C2 [13]): 256 µg/mL; MIC (CRAB C4 [14]): 512 µg/mL; inhibition at 32 µg/mL (CRAB C1 biofilm): 77.2%; MIC [9]: 274 µg/mL
CO[C@H]1/C=C/O[C@@]2(C)Oc3c(C)c(O)c4c(O)c(c(/C=N/N5CCN(C)CC5)c(O)c4c3C2=O)NC(=O)/C(C)=C\C=C\[C@H](C)[C@H](O)[C@@H](C)[C@@H](O)[C@@H](C)[C@H](OC(C)=O)[C@@H]1C [Rifampin]	–	–	–	–	–	–	–	–	–	128 (≈ 156 µM)	256 (≈ 311 µM)	128 (≈ 156 µM)	4 (≈ 4.86 µM)	2 (≈ 2.43 µM)	64 (≈ 77.8 µM)	1 (≈ 1.22 µM)	128 (≈ 156 µM)	128	256	128	MIC (CRAB C2 [13]): 64 µg/mL; MIC (CRAB C4 [14]): 128 µg/mL; inhibition at 32 µg/mL (CRAB C1 biofilm; [16]): 77.5%; MIC [9]: 101 µg/mL
C[C@@H](O)[C@H]1C(=O)N2C(C(=O)O)=C(S[C@@H]3CN[C@H](C(=O)N(C)C)C3)[C@H](C)[C@H]12 [Meropenem]	–	–	–	–	–	–	–	–	–	64 (≈ 167 µM)	64 (≈ 167 µM)	128 (≈ 334 µM)	0.25 (≈ 0.652 µM)	0.25 (≈ 0.652 µM)	64 (≈ 167 µM)	1 (≈ 2.61 µM)	128 (≈ 334 µM)	64	64	128	MIC (CRAB C2 [13]): 64 µg/mL; MIC (CRAB C4 [14]): 128 µg/mL; inhibition at 32 µg/mL (CRAB C1 biofilm; [16]): 79.2%; MIC [9]: 64 µg/mL
